Read-outs that look alike come from different tables or passages of the source. Marks after values point to notes of the source that are not given here.
Tested on: PC-3M prostate cancer cell line
Conditions: for inhibition fraction at the given concentration: PC-3M proliferation
Description: Cytotoxicity of Quinolyl Germanyl Propionate Sesquioxide (a) and Quinolyl Germanyl-α-methyl Propionate Sesquioxide (b) Against PC-3M Prostate Cancer Cell Line
The only difference of these two compounds is with or without the methyl group in the linking chain of the Germanium and quinoline.

Substance	inhibition fraction at the given concentration (10 μM, 24 h)	inhibition fraction at the given concentration (10 μM, 48 h)	inhibition fraction at the given concentration (10 μM, 72 h)	inhibition fraction at the given concentration (30 μM, 24 h)	inhibition fraction at the given concentration (30 μM, 48 h)	inhibition fraction at the given concentration (30 μM, 72 h)	inhibition fraction at the given concentration (60 μM, 24 h)	inhibition fraction at the given concentration (60 μM, 48 h)	inhibition fraction at the given concentration (60 μM, 72 h)	IC50 relative to that of Compound (b) (PC-3M, MTT method)	IC50 (PC-3M, measured by MTT method)
Quinolyl Germanyl Propionate Sesquioxide [Compound (a)]	0.34**	0.69	0.62	0.48	0.74	0.74	0.50	0.74	0.78	three fold lower	10 µM
Quinolyl Germanyl-α-methyl Propionate Sesquioxide [Compound (b)]	0.09	0.32	0.58	0.30	0.45	0.69	0.20	0.43	0.67	–	–
